Test results reported in the NIST ThermoML archive (doi:10.1016/j.tca.2014.03.027).

Key:
[1] = 298.15 K; 101.33 kPa; Liquid; Vibrating tube method
[2] = molar heat capacity at constant pressure; details: 298.15 K; 101.33 kPa; Liquid; Small sample (50 mg) DSC
[3] = xn = mol fraction of the nth substance listed; details: 101 kPa, Liquid, Small sample (50 mg) DSC

NCc1ccccc1 [benzylamine]
Details	mass density [kg/m3]	molar heat capacity at constant pressure [J/K/mol]
[1]	978.337	–
[2]	–	206.74

NCc1ccccc1 [benzylamine] + CCCCCCC
[3], 293.15 K
Details	excess molar heat capacity [J/K/mol]
x1 = 0.1982	0.78
x1 = 0.2473	1.66
x1 = 0.2989	3.35
x1 = 0.3496	4.17
x1 = 0.3734	4.88
x1 = 0.3986	5.87
x1 = 0.4976	6.51
x1 = 0.5988	5.47
x1 = 0.6983	3.47
x1 = 0.7991	1.46

NCc1ccccc1 [benzylamine] + CCCCCO
excess molar heat capacity [J/K/mol], [3]
Details	293.15 K	298.15 K	308.15 K
x2 = 0.0495	2.15	2.31	2.12
x2 = 0.1528	5.18	5.79	5.71
x2 = 0.2765	8.64	8.73	8.42
x2 = 0.2967	9.27	9.48	8.89
x2 = 0.4512	12.51	12.28	11.2
x2 = 0.4994	13.7	13.25	12.08
x2 = 0.6006	13.71	13.13	11.91
x2 = 0.6516	12.63	12.04	10.9
x2 = 0.7019	11.57	10.98	9.9
x2 = 0.7998	9.04	8.54	7.76
x2 = 0.8493	7.39	7.06	6.31
x2 = 0.899	5.41	5.16	4.6
x2 = 0.9505	2.72	2.46	2.3
